# Results reported in PMC12119672, “Development and evaluation of [^11C]DPA-813 and [^18F]DPA-814: novel TSPO PET tracers insensitive to human single nucleotide polymorphism rs6971” (European Journal of Nuclear Medicine and Molecular Imaging, 2025).
# Columns and labels:
# WT human TSPO [1] = target: T1, WT human TSPO (Homo sapiens, UniProt P30536); assay: Competition radioligand binding vs [3H]PK 11195, membranes of transfected HEK-293T cells (WT TSPO); conditions: vs [3H]PK 11195 (10 nM), HEK-293T membranes, mean ± SEM; read-out: Ki WT hTSPO
# T1 construct: expressed in transfected cells
# Method: (§1) Binding affinities (Ki) to wild-type (WT) and A147T human TSPO were assessed using a previously published method. HEK-293T cells were stably transfected with WT and A147T TSPO. Membranes were isolated from each cell line using an Ultra-Turrax hand-held homogeniser. These cells have been previously validated as an in vitro model for low- and high-affinity TSPO binding. […] Non-specific binding was determined using a saturating concentration (1 µM) of non-tritiated PK 11195. This non-specific binding contributed less than 10% of total binding. Reactions were halted by filtering through a 96-well glass-fibre filter plate (Millipore), followed by eight washes with ice-cold 50 mM Tris HCl. Microscint 0 was added to the plate and resultant radioactivity-related photons were collected by a Microbeta 2450 (PerkinElmer). Ki values were fit to a competition binding curve fit on non-specific binding-corrected data using GraphPad Prism 10.0 (GraphPad). Results are presented as mean ± standard error of the mean (SEM) from at least three independent experiments. Binding affinities (Ki) to rat TSPO were measured in duplicate by Eurofins Panlabs Discovery Services (assay #226700) (Supplementary Fig. 12). Single-dose (10 µM) off-target in vitro screening was performed in duplicate by Eurofins Panlabs Discovery Services (Supplementary Table 5).
# (§2) In vitro binding affinities (Ki) for human TSPO were initially assessed using a competition radioligand assay against [^3H]PK 11195 in our well-characterised assay using membranes isolated from transfected HEK-293T cells overexpressing either WT or A147T TSPO [32]. This structure-activity relationship study will be reported in a separate publication. […] Data for DPA-713 and DPA-714 are included for comparison.
# WT human TSPO [2] = target: T2, WT human TSPO (Homo sapiens, UniProt P30536, T147A); assay: as above; conditions: DPA-813 vs DPA-713; DPA-814 vs DPA-714
# T2 construct: expressed in transfected cells
# Method: as §1, §2
# A147T human TSPO = target: T3, A147T human TSPO (Homo sapiens, UniProt P30536); assay: Competition radioligand binding vs [3H]PK 11195, membranes of transfected HEK-293T cells (A147T TSPO); conditions: for increase in affinity to A147T TSPO versus parent compound: DPA-813 vs DPA-713, DPA-814 vs DPA-714; for Ki: vs [3H]PK 11195 (10 nM), HEK-293T membranes, mean ± SEM, read-out: Ki A147T hTSPO
# T3 construct: expressed in transfected cells
# Method: as §1, §2
# rat TSPO = target: T4, rat TSPO (Rattus norvegicus, UniProt P16257); assay: Competitive binding to rat TSPO vs [3H]PK 11195 (Eurofins assay #226700, rat heart membranes); conditions: vs [3H]PK 11195, result in words
# T4 construct: Heart of male Wistar derived rats weighing 175 ± 25 g are used to prepare peripheral benzodiazepine membrane receptors [TSPO]; tissue Eurofins Panlabs Discovery Services assay #226700; host or cells: rat heart (male Wistar derived)
# Method: as §1
# Supplementary Figure 12 Dose-response curves and binding affinities of DPA-813 and DPA-814 showing competitive binding to rat TSPO vs [^3H]PK 11195. Method from Eurofins: Heart of male Wistar derived rats weighing 175 ± 25 g are used to prepare peripheral benzodiazepine membrane receptors [TSPO] in modified Tris-HCl buffer pH 7.5. A 0.25 mg aliquot is incubated with 0.3 nM [^3H]PK 11195 for 15 minutes at 25 °C. Non-specific binding is estimated in the presence of 100 μM Dipyridamole. Membranes are filtered and washed, the filters are then counted to determine [^3H]PK 11195 specifically bound.
# [3] = Lipophilicity (logD at pH 7.4) by gradient HPLC; assay type: physicochemical; conditions: gradient HPLC retention correlated with standard compounds; pH 7.4, gradient HPLC; read-out: logD7.4
# Description: Partition coefficient values (logD) were estimated at pH 7.4 by correlating chromatographic retention properties against the characteristics of a series of standard compounds with known partition coefficient values. The method employed a gradient HPLC based on a previously published method.
# [4] = system: Central Benzodiazepine Receptor; assay: Off-target screen, 10 µM single dose (Eurofins); set-up: species or system human; conditions: n = 2, inhibition of agonist radioligand binding
# Method: as §1, with “Results are presented as mean ± standard error of the mean (SEM) from at least three independent experiments.” left out, “Single-dose (10 µM) off-target in vitro screening was performed in duplicate by Eurofins Panlabs Discovery Services (Supplementary Table 5).” left out
# (§3) Supplementary Table 5. […] 10 μM single dose (n = 2) screen performed by Eurofins Panlabs Discovery. ^a All targets are human receptors. ^b Inhibition of antagonist radioligand binding. ^c Inhibition of agonist radioligand binding. ^d Enzymatic functional readout.
# 5-HT2A = target: T5, 5-HT2A (Homo sapiens, UniProt P28223); assay: Off-target screen, 10 µM single dose (Eurofins); conditions: read-out: % Binding Inhibition at 10 μM, 5-HT2A
# T5 construct: purchased Eurofins Panlabs Discovery Services
# Method: as §1
# (§4) Supplementary Table 5. Off-target binding to common CNS targets. 10 μM single dose (n = 2) screen performed by Eurofins Panlabs Discovery. ^a All targets are human receptors. ^b Inhibition of antagonist radioligand binding. ^c Inhibition of agonist radioligand binding. ^d Enzymatic functional readout.
# 5-HT2B = target: T6, 5-HT2B (Homo sapiens, UniProt P41595); assay: Off-target screen, 10 µM single dose (Eurofins); conditions: read-out: % Binding Inhibition at 10 μM, 5-HT2B
# T6 construct: purchased Eurofins Panlabs Discovery Services
# Method: as §1, §4
# CB1 = target: T7, CB1 (Homo sapiens, UniProt P21554); assay: Off-target screen, 10 µM single dose (Eurofins); conditions: read-out: % Binding Inhibition at 10 μM, CB1
# T7 construct: purchased Eurofins Panlabs Discovery Services
# Method: as §1, §4
# CB2 = target: T8, CB2 (Homo sapiens, UniProt P34972); assay: Off-target screen, 10 µM single dose (Eurofins); conditions: read-out: % Binding Inhibition at 10 μM, CB2
# T8 construct: purchased Eurofins Panlabs Discovery Services
# Method: as §1, §4
# D1 = target: T9, D1 (Homo sapiens, UniProt P21728); assay: Off-target screen, 10 µM single dose (Eurofins); conditions: read-out: % Binding Inhibition at 10 μM, D1
# T9 construct: purchased Eurofins Panlabs Discovery Services
# Method: as §1, §4
# D2L = target: T10, D2L (Homo sapiens, UniProt P14416); assay: Off-target screen, 10 µM single dose (Eurofins); conditions: read-out: % Binding Inhibition at 10 μM, D2L
# T10 construct: purchased Eurofins Panlabs Discovery Services
# Method: as §1, §4
# DAT = target: T11, DAT (Homo sapiens, UniProt Q01959); assay: Off-target screen, 10 µM single dose (Eurofins); conditions: read-out: % Binding Inhibition at 10 μM, DAT
# T11 construct: purchased Eurofins Panlabs Discovery Services
# Method: as §1, §4
# M1 = target: T12, M1 (Homo sapiens, UniProt P11229); assay: Off-target screen, 10 µM single dose (Eurofins); conditions: read-out: % Binding Inhibition at 10 μM, M1
# T12 construct: purchased Eurofins Panlabs Discovery Services
# Method: as §1, §4
# MOP = target: T13, MOP (Homo sapiens, UniProt P35372); assay: Off-target screen, 10 µM single dose (Eurofins); conditions: read-out: % Binding Inhibition at 10 μM, MOP
# T13 construct: purchased Eurofins Panlabs Discovery Services
# Method: as §1, §4
# NET = target: T14, NET (Homo sapiens, UniProt P23975); assay: Off-target screen, 10 µM single dose (Eurofins); conditions: read-out: % Binding Inhibition at 10 μM, NET
# T14 construct: purchased Eurofins Panlabs Discovery Services
# Method: as §1, §4
# SERT = target: T15, SERT (Homo sapiens, UniProt P31645); assay: Off-target screen, 10 µM single dose (Eurofins); conditions: read-out: % Binding Inhibition at 10 μM, SERT
# T15 construct: purchased Eurofins Panlabs Discovery Services
# Method: as §1, §4
# nAChR (α4/β2) = target: T16, nAChR (α4/β2) (Homo sapiens, UniProt P17787+P43681); assay: Off-target screen, 10 µM single dose (Eurofins); conditions: read-out: % Binding Inhibition at 10 μM, nAChR (α4/β2)
# T16 construct: purchased Eurofins Panlabs Discovery Services
# Method: as §1, §4
# β2 Adrenergic receptor = target: T17, β2 Adrenergic receptor (Homo sapiens, UniProt P07550); assay: Off-target screen, 10 µM single dose (Eurofins); conditions: read-out: % Binding Inhibition at 10 μM, β2 Adrenergic receptor
# T17 construct: purchased Eurofins Panlabs Discovery Services
# Method: as §1, §4
# MAO-B = target: T18, MAO-B (Homo sapiens, UniProt P27338); assay: Off-target screen, 10 µM single dose (Eurofins), enzymatic functional readout; assay type: biochemical; conditions: n = 2, read-out: % Binding Inhibition at 10 μM, MAO-B
# T18 construct: purchased Eurofins Panlabs Discovery Services
# Method: as §1, with “Results are presented as mean ± standard error of the mean (SEM) from at least three independent experiments.” left out, “Single-dose (10 µM) off-target in vitro screening was performed in duplicate by Eurofins Panlabs Discovery Services (Supplementary Table 5).” left out
# as §3
# A147T TSPO = system: A147T TSPO; set-up: method as in PMID 30900397; conditions: cited from earlier work
# T3 sequence (P30536 whole entry, stated change not applied): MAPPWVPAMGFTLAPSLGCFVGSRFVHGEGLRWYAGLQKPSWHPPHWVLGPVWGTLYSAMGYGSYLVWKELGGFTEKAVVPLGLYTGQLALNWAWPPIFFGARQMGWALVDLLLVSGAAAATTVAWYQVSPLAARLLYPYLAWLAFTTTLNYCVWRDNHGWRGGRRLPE
# T16 sequence (P43681 29-627 limits assumed): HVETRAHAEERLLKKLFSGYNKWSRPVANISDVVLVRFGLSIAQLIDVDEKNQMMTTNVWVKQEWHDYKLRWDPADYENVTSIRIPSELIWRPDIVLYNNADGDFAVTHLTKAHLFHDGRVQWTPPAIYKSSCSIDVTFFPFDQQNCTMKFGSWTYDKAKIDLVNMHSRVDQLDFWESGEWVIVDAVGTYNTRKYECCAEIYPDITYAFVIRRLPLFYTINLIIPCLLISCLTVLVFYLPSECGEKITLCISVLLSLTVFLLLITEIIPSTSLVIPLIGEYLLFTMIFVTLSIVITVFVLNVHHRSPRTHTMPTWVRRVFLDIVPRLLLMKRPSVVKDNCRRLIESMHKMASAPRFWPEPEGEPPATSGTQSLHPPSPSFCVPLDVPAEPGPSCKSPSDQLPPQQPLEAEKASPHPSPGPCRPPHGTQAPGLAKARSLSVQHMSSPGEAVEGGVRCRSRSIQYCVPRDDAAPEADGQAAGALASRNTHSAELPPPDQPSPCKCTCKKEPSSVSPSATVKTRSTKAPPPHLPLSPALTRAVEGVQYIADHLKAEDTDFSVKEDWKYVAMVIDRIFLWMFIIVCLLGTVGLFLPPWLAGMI
# T16 sequence (P17787 26-502): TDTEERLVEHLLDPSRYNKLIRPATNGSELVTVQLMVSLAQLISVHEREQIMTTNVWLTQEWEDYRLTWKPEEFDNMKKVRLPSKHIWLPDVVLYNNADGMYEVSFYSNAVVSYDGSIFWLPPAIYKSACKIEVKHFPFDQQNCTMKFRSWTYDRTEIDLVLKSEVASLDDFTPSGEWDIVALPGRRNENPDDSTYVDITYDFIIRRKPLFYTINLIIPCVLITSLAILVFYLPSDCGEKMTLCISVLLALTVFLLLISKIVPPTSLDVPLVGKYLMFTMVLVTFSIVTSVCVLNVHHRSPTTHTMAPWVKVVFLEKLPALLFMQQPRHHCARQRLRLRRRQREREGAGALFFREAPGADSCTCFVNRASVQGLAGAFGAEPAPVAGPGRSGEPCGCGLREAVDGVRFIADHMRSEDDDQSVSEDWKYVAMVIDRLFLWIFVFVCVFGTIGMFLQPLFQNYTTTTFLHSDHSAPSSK
# T15 sequence (P31645 whole entry): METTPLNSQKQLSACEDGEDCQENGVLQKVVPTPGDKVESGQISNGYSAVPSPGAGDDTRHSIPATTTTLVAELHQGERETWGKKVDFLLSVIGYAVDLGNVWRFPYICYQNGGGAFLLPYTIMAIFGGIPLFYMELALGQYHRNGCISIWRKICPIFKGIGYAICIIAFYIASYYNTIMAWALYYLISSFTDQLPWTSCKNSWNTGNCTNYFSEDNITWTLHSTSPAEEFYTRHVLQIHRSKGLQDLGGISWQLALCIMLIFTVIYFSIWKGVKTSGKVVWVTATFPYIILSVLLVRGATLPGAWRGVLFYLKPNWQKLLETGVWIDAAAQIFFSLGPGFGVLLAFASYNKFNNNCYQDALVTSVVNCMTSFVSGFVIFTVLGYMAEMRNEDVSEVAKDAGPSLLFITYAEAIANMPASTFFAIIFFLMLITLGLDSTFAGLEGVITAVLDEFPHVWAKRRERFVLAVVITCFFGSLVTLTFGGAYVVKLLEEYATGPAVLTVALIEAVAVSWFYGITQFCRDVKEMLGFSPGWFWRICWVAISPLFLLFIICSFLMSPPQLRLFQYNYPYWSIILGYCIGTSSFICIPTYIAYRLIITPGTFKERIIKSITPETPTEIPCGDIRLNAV
# T1 sequence (P30536 whole entry T147A): as the sequence (P30536 whole entry, stated change not applied) above, with T147A counted along it
# T2 sequence (P30536 whole entry T147A): as the sequence (P30536 whole entry, stated change not applied) above, with T147A counted along it
# T10 sequence (P14416 whole entry): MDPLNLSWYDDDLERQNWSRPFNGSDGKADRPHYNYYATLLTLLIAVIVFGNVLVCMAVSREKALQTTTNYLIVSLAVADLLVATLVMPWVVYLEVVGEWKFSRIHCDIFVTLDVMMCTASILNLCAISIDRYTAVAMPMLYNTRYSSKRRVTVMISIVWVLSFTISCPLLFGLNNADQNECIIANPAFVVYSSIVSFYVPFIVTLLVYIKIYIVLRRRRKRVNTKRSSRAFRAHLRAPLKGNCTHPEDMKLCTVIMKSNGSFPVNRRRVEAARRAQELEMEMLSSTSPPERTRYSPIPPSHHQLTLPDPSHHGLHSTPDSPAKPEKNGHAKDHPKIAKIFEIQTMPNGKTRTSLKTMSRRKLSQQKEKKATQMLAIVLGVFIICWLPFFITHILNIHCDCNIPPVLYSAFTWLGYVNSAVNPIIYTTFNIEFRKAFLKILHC
# T11 sequence (Q01959 whole entry): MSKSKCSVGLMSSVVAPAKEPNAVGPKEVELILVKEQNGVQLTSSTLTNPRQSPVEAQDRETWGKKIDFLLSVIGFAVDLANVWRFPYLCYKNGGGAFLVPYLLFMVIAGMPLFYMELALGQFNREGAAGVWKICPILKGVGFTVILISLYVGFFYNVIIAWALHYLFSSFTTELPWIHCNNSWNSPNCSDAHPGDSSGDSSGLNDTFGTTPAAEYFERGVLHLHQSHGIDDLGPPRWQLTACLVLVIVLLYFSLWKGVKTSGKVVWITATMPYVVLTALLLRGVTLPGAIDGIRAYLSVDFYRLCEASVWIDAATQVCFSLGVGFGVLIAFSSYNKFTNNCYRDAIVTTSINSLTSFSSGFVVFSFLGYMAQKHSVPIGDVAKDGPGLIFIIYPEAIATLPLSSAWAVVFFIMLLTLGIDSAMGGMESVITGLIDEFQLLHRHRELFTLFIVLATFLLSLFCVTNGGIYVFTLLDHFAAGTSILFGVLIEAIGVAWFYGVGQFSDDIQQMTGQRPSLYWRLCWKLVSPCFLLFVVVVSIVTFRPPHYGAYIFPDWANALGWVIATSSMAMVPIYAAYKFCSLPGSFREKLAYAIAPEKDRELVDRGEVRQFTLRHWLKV
# T12 sequence (P11229 whole entry): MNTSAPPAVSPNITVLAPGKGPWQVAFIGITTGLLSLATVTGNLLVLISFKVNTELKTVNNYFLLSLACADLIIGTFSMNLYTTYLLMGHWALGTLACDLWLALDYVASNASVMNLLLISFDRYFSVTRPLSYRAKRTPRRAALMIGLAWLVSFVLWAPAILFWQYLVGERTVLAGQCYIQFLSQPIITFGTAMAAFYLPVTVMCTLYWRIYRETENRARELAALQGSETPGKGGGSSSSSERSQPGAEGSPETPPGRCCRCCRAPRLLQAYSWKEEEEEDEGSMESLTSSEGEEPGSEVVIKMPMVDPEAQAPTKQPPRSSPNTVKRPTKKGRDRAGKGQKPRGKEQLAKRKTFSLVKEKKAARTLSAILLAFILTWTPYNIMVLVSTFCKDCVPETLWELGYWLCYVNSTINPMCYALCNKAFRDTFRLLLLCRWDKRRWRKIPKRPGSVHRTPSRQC
# T17 sequence (P07550 whole entry): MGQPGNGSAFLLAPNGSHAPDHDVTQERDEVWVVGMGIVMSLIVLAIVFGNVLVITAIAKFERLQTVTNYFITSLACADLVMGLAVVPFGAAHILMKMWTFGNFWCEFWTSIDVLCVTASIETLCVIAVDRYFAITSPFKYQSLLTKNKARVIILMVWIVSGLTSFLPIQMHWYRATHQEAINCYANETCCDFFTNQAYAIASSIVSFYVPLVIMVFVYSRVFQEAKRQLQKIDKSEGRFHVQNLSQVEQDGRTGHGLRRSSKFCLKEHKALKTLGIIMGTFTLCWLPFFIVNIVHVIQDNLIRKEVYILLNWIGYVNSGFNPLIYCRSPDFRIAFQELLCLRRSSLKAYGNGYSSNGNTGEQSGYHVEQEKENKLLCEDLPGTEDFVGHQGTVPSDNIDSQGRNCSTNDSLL
# T5 sequence (P28223 whole entry): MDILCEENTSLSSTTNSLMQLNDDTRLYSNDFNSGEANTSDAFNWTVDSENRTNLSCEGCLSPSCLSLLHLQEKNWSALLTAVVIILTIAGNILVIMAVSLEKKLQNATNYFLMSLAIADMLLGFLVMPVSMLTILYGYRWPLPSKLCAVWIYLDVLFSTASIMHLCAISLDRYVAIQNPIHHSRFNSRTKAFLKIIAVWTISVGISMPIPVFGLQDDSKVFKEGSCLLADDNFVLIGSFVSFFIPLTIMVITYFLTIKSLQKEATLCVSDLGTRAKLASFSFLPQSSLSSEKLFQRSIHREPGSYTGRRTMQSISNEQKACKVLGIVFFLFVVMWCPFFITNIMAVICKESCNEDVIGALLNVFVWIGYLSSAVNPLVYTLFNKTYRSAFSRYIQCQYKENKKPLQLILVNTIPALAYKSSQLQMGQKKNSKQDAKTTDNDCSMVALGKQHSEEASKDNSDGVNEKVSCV
# T14 sequence (P23975 whole entry): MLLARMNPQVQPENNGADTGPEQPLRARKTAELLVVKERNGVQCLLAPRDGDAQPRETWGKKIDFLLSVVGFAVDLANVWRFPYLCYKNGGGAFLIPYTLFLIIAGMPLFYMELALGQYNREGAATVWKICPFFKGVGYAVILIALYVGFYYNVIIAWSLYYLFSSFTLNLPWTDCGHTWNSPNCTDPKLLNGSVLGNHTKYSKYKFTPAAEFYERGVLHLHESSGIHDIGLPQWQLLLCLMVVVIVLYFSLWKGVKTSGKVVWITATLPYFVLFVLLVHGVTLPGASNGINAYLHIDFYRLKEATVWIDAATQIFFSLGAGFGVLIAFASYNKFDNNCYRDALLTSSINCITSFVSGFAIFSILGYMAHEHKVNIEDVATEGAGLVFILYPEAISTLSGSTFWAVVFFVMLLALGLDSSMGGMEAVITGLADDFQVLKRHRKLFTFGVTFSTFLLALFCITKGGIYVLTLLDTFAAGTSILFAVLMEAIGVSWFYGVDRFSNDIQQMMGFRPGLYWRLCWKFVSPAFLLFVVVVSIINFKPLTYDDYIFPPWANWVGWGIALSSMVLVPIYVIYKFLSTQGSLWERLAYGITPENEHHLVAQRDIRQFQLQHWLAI
SMILES,Ki (WT human TSPO [1]),increase in affinity to WT TSPO versus parent compound (WT human TSPO [2]),increase in affinity to A147T TSPO versus parent compound (A147T human TSPO),Ki (A147T human TSPO),binding affinity to rat TSPO (rat TSPO),chromatographic logD [3],"% Binding Inhibition at 10 μM, Central Benzodiazepine Receptor [4]",inhibition at 10 µM (5-HT2A),inhibition at 10 µM (5-HT2B),inhibition at 10 µM (CB1),inhibition at 10 µM (CB2),inhibition at 10 µM (D1),inhibition at 10 µM (D2L),inhibition at 10 µM (DAT),inhibition at 10 µM (M1),inhibition at 10 µM (MOP),inhibition at 10 µM (NET),inhibition at 10 µM (SERT),inhibition at 10 µM (nAChR (α4/β2)),inhibition at 10 µM (β2 Adrenergic receptor),further results
COc1ccc(-c2nn3c(C)cc(C)nc3c2CC(=O)N(C)c2ccccc2)cc1 [DPA-813],6.2 ± 1.9 nM,~ 3 fold,~ 32 fold,3.1 ± 0.9 nM,subnanomolar,3.6,51%,1%,25%,4%,-16%,13%,10%,10%,-13%,15%,3%,4%,4%,-1%,inhibition at 10 µM (MAO-B): 10%
CCN(CC)C(=O)[C@H]1CCCc2c1c1c(OC)cccc1n2CC[18F] [[^18F]GE180],,,,,,,,,,,,,,,,,,,,,reduction in affinity for A147T TSPO in vitro (A147T TSPO): 5 fold
Cc1cc(C)n2nc(-c3ccc(OCCF)cc3)c(CC(=O)N(C)c3ccccc3)c2n1 [DPA-814],7.3 ± 0.5 nM,3 fold,46 fold,5.7 ± 1.8 nM,subnanomolar,3.7,18%,4%,30%,-6%,-22%,24%,11%,7%,-14%,24%,4%,2%,1%,0%,inhibition at 10 µM (MAO-B): 47%
